Results: ChEMBL document CHEMBL1201862, “PubChem BioAssay data set” (2004)
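Growth conditions: 96-well plates. Treatment: test compound, 48 hours, 5 concentrations. Analysis: linear interpolation between bracketing concentrations; unreached endpoints set to highest concentration. GI50: concentration for 50% inhibition of growth.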 Active and inactive are the calls of the source. Cut-off read from the data, not from the text of the source: active = GI50 up to about 1.1 µM and inactive = higher.

Key:
Assay in all cases: growth of human tumour cells (NCI), 48 h
A549 = system: A549
BT-549 = system: BT-549
CAKI-1 = system: CAKI-1
HCT-116 = system: HCT-116
HCT-15 = system: HCT-15
HOP-62 = system: HOP-62
IGROV-1 = system: IGROV-1
KM12 = system: KM12
LOX IMVI = system: LOX IMVI
MOLT-4 = system: MOLT-4
Malme-3M = system: Malme-3M
NCI-H226 = system: NCI-H226
RXF 393 = system: RXF 393
SF-295 = system: SF-295
SK-MEL-2 = system: SK-MEL-2
SK-MEL-5 = system: SK-MEL-5
SK-OV-3 = system: SK-OV-3
SNB-19 = system: SNB-19
SW-620 = system: SW-620
TK-10 = system: TK-10

Row | Structure (SMILES) | GI50 (A549) | GI50 (BT-549) | GI50 (CAKI-1) | GI50 (HCT-116) | GI50 (HCT-15) | GI50 (HOP-62) | GI50 (IGROV-1) | GI50 (KM12) | GI50 (LOX IMVI) | GI50 (MOLT-4) | GI50 (Malme-3M) | GI50 (NCI-H226) | GI50 (RXF 393) | GI50 (SF-295) | GI50 (SK-MEL-2) | GI50 (SK-MEL-5) | GI50 (SK-OV-3) | GI50 (SNB-19) | GI50 (SW-620) | GI50 (TK-10)
1 | CCCCCCCCCCCCCCCC[N+](C)(C)CCl | 5 µM (inactive) | 2.29 µM (inactive) | 2.67 µM (inactive) | 2.14 µM (inactive) | 3.59 µM | 2.29 µM (inactive) | 0.585 µM (active) | 1.46 µM (inactive) | 1.51 µM (inactive) | 1.84 µM (inactive) | 2.65 µM (inactive) | 2.12 µM (inactive) | 1.32 µM (inactive) | 2.26 µM (inactive) | 13.3 µM (inactive) | 1.68 µM (inactive) | 6.87 µM (inactive) | 1.66 µM (inactive) | 2.69 µM (inactive) | 2.25 µM (inactive)
2 | CCN(CC)CC[n+]1ccc2c(C)c3[nH]c4ccc(O)cc4c3c(C)c2c1 | 1.35 µM (inactive) | 12.7 µM (inactive) | 13.8 µM (inactive) | 6.47 µM (inactive) | 18.7 µM | 2.03 µM (inactive) | 6.44 µM (inactive) | 4.31 µM (inactive) | 10.8 µM (inactive) | 0.0473 µM (active) | 5.83 µM (inactive) | 1.05 µM (active) | 11.1 µM (inactive) | 3.01 µM (inactive) | 16 µM (inactive) | 3.09 µM (inactive) | 10.4 µM (inactive) | 1.21 µM (inactive) | 5.57 µM (inactive) | 28.3 µM (inactive)
3 | COc1ccc(/C(Nc2ccccc2)=C(\CCl)c2ccccc2)cc1OC | 44.6 µM (inactive) | 33.2 µM (inactive) | > 100 µM (inactive) | 17.7 µM (inactive) | 40.7 µM | > 100 µM (inactive) | > 100 µM (inactive) | 57.1 µM (inactive) | 10.1 µM (inactive) | 29.6 µM (inactive) | 37.2 µM (inactive) | 30.9 µM (inactive) | 83.8 µM (inactive) | 49.2 µM (inactive) | 24.1 µM (inactive) | 22.2 µM (inactive) | > 100 µM (inactive) | > 100 µM (inactive) | 46.2 µM (inactive) | 41.5 µM (inactive)
4 | OCCOCn1nncc1Cn1ncc2c(SCc3ccccc3)ncnc21 | > 100 µM (inactive) | > 100 µM (inactive) | > 100 µM (inactive) | 45.9 µM (inactive) | 57.3 µM | > 100 µM (inactive) | 51.1 µM (inactive) | > 100 µM (inactive) | 35.5 µM (inactive) | 6.19 µM (inactive) | > 100 µM (inactive) | > 100 µM (inactive) | > 100 µM (inactive) | > 100 µM (inactive) | > 100 µM (inactive) | > 100 µM (inactive) | > 100 µM (inactive) | > 100 µM (inactive) | 15.6 µM (inactive) | > 100 µM (inactive)
5 | O=c1cc(/N=N\c2ccc(Cl)c(Cl)c2)[nH]c(=O)[nH]1 | 15.3 µM (inactive) | 2.21 µM (inactive) | 2.07 µM (inactive) | 1.75 µM (inactive) | 1.72 µM | 6.43 µM (inactive) | 1.57 µM (inactive) | 2.26 µM (inactive) | 1.76 µM (inactive) | 1.97 µM (inactive) | 2.23 µM (inactive) | 15.1 µM (inactive) | 1.77 µM (inactive) | 15.3 µM (inactive) | 5.2 µM (inactive) | 4.89 µM (inactive) | 15.8 µM (inactive) | 12.1 µM (inactive) | 1.86 µM (inactive) | 1.78 µM (inactive)
6 | CC1(C)C2CCC1C(=O)C(C=O)C2 (stereo not given) | > 100 µM (inactive) | > 100 µM (inactive) | > 100 µM (inactive) | > 100 µM (inactive) | 49.5 µM | > 100 µM (inactive) | > 100 µM (inactive) | > 100 µM (inactive) | > 100 µM (inactive) | > 100 µM (inactive) | > 100 µM (inactive) | > 100 µM (inactive) | > 100 µM (inactive) | > 100 µM (inactive) | > 100 µM (inactive) | > 100 µM (inactive) | > 100 µM (inactive) | > 100 µM (inactive) | > 100 µM (inactive) | > 100 µM (inactive)
7 | CC[C@H](C)[C@H]1NC(=O)[C@@H](NC(=O)[C@@H](CC(C)C)N(C)C(=O)C2CCCN2C(=O)[C@H](C)O)[C@@H](C)OC(=O)[C@H](Cc2ccc(OC)cc2)N(C)C(=O)[C@@H]2CCCN2C(=O)[C@H](CCCCNC(=O)OCc2ccccc2)NC(=O)[C@H](C)C(=O)[C@H](C(C)C)OC(=O)C[C@@H]1O (stereo not given in full) | 3.9 µM (inactive) | 7.93 µM (inactive) | 16.8 µM (inactive) | 3.28 µM (inactive) | > 25 µM | 6.65 µM (inactive) | 7.74 µM (inactive) | 4.73 µM (inactive) | 7.4 µM (inactive) | 4.79 µM (inactive) | 4.89 µM (inactive) | 12.7 µM (inactive) | > 25 µM (inactive) | 8.63 µM (inactive) | 1.96 µM (inactive) | 4.41 µM (inactive) | 7.69 µM (inactive) | 2.66 µM (inactive) | 7.74 µM (inactive) | 6.97 µM (inactive)
